Source: US9403814B2, “Crystalline forms of dihydropyrimidine derivatives” (SUNSHINE LAKE PHARMA CO., LTD., priority 2012, dated 2016)
Counter-ions that a name gives are not always drawn.

Columns and labels:
[1] = Solubility test: dissolution of crystalline form sample in water; assay type: physicochemical; conditions: 25±5° C.; for dissolubility of samples (300 mg/mL): about 600 mg sample in water (2 mL), ultrasonic vibration, visual check for solute particles; for solubility in water (conclusion from Table 1): 300 mg/mL
Method: About 600 mg of a crystalline form sample was added to water (2 mL). The dissolution of the sample was obtained with ultrasonic vibration at 25±5° C. No visible solute particles mean that the sample has a complete dissolution in water; whereas visible solute particles mean that the sample precipitates in water.

[2] = Stability test: impurity content by HPLC under storage conditions; assay type: physicochemical; conditions: for stability under the experimental conditions (conclusion from Tables 2 and 3): high temperature, accelerated, mediated, high humidity and illumination conditions, up to 30 days
Method: A crystalline form sample was put in a watch glass in the form of a thin layer of ≦5 mm. The stability test was conducted under different conditions: high temperature (60±2° C.) for 30 days, accelerated condition (40±2° C., 75%±5% humidity) for 30 days, mediated condition (30±2° C., 65%±5% humidity) for 30 days, high humidity (25±2° C., 90%±5%) for 10 days and illumination condition (visible light 4500 lx±500 lx with ultraviolet light not lower than 0.7 W·h/m^2, 25±2° C., 60%±5% relative humidity) for 10 days respectively. The impurity contents of crystalline forms B and C were determined at various time points (0, 10, 20, and 30 days) by high performance liquid chromatography (HPLC) with peak area normalization.

[3] = accelerated condition (40±2° C., 75%±5% humidity), 0 day
[4] = accelerated condition (40±2° C., 75%±5% humidity), 10 days
[5] = accelerated condition (40±2° C., 75%±5% humidity), 20 days
[6] = accelerated condition (40±2° C., 75%±5% humidity), 30 days
[7] = high humidity (25±2° C., 90%±5%), 0 day
[8] = high humidity (25±2° C., 90%±5%), 10 days
[9] = high temperature (60±2° C.), 0 day
[10] = high temperature (60±2° C.), 10 days
[11] = high temperature (60±2° C.), 20 days
[12] = high temperature (60±2° C.), 30 days
[13] = illumination condition (visible light 4500 lx±500 lx with UV, 25±2° C., 60%±5% relative humidity), 0 day
[14] = illumination condition (visible light 4500 lx±500 lx with UV, 25±2° C., 60%±5% relative humidity), 10 days
[15] = mediated condition (30±2° C., 65%±5% humidity), 0 day
[16] = mediated condition (30±2° C., 65%±5% humidity), 10 days
[17] = mediated condition (30±2° C., 65%±5% humidity), 20 days
[18] = mediated condition (30±2° C., 65%±5% humidity), 30 days

Row | solubility in water (conclusion from Table 1) [1] | impurity content by HPLC [2, 3] [%] | impurity content by HPLC [2, 4] [%] | impurity content by HPLC [2, 5] [%] | impurity content by HPLC [2, 6] [%] | impurity content by HPLC [2, 7] [%] | impurity content by HPLC [2, 8] [%] | impurity content by HPLC [2, 9] [%] | impurity content by HPLC [2, 10] [%] | impurity content by HPLC [2, 11] [%] | impurity content by HPLC [2, 12] [%] | stability under the experimental conditions (conclusion from Tables 2 and 3) [2] | impurity content by HPLC [2, 13] [%] | impurity content by HPLC [2, 14] [%] | impurity content by HPLC [2, 15] [%] | impurity content by HPLC [2, 16] [%] | impurity content by HPLC [2, 17] [%] | impurity content by HPLC [2, 18] [%] | Structure (SMILES) | dissolubility of samples (300 mg/mL) [1]
1 | good solubility in water | 0.06 | 0.09 | 0.08 | 0.10 | 0.06 | 0.06 | 0.06 | 0.13 | 0.20 | 0.24 | did not degrade or change | 0.06 | 0.12 | 0.06 | 0.10 | 0.13 | 0.12 | CCOC(=O)C1=C(CN2CCOCC2)NC(c2nccs2)=NC1c1ccc(F)cc1Br (single isomer, unassigned) [form B, 6[R,S]-ethyl 6-(2-bromo-4-fluorophenyl)-4-(morpholinomethyl)-2-(thiazol-2-yl)-1,6-dihydro pyrimidine-5-carboxylate mesylate] | completely dissolved, some sample precipitated
2 | good solubility in water | 0.03 | 0.04 | 0.04 | 0.04 | 0.03 | 0.04 | 0.03 | 0.06 | 0.03 | 0.03 | did not degrade or change | 0.03 | 0.03 | 0.03 | 0.03 | 0.03 | 0.03 | CCOC(=O)C1=C(CN2CCOCC2)NC(c2nccs2)=NC1c1ccc(F)cc1Br (single isomer, unassigned) [form C, 6[R,S]-ethyl 6-(2-bromo-4-fluorophenyl)-4-(morpholinomethyl)-2-(thiazol-2-yl)-1,6-dihydro pyrimidine-5-carboxylate mesylate] | completely dissolved, no sample precipitated
